Several values for one entry are separate records, joined by “and”; a condition that tells them apart may be missing. Identical values can stand only once.
What was measured:
[1] = instrument: DT, single field, calibrated with Agilent tune mix (Agilent)
[2] = instrument: DT, single field
[3] = instrument: DT, stepped-field
[4] = [M+H]+; instrument: TW; calibrated with phosphatidylcholines (ESI+) and phosphatidylethanolamines (ESI-)

collision cross section (N2) ([1]; [M+NH4]+) [Å²]	collision cross section (N2) ([2]; [M+NH4]+)	collision cross section (N2) ([2]; [M+Na]+)	Structure (SMILES)	further results
288.5	289.72 Å² and 292.07 Å² and 292.03 Å²	288.53 Å² and 291.03 Å²	CCCCCCCC/C=C\CCCCCCCC(=O)OC[C@@H](COC(=O)CCCCCCCCCCC)OC(=O)CCCCCCCCCCC [TG(42:1)]	–
326.5	324.13 Å² and 326.41 Å² and 329.85 Å²	322.77 Å² and 324.86 Å²	CCCC/C=C\CCCCCCCC(=O)OC[C@H](COC(=O)CCCCCCCCC/C=C\CCCCCCCC)OC(=O)CCCCCCCCC/C=C\CCCCCCCC [TG(54:3)]	–
327.2	327.44 Å²	–	CC/C=C\C/C=C\C/C=C\C/C=C\C/C=C\CCCCCC(=O)OC[C@@H](COC(=O)CCCCCCCCCCCCCCC)OC(=O)CCC/C=C\C/C=C\C/C=C\C/C=C\C/C=C\CC [TG(58:10)]	–
339.4	344.42 Å²	–	CCCCC/C=C\C/C=C\C/C=C\CCCCCCCCC(=O)OC[C@@H](COC(=O)CCCCCCCCCCCCCCCCC)OC(=O)CCCCCCCCC/C=C\C/C=C\CCCCC [TG(60:5)]	–
323.4	323.2 Å² and 325.31 Å²	323.38 Å²	CCCCCCCCCCCCCCCCCCCC(=O)OC[C@@H](COC(=O)CCCCCCCCCCC)OC(=O)CCCCCCCCCCCCCCCCCCC [TG(52:0)]	–
317.4	317.8 Å² and 320.46 Å² and 322.68 Å²	–	CCCCC/C=C\C/C=C\C/C=C\C/C=C\CCCCCC(=O)OC[C@@H](COC(=O)CCCCCCCCCCCCC)OC(=O)CCCCCCC/C=C\CCCCCCC [TG(53:5)]	–
327.5	330.49 Å² and 333.23 Å² and 328.28 Å²	–	CCCCC/C=C\CCCCCCCC(=O)OC[C@H](COC(=O)CCCCCCCCC/C=C\CCCCCCCC)OC(=O)CCCCCCCCC/C=C\CCCCCCCC [TG(55:3)]	–
326	328.36 Å² and 330.81 Å² and 326.47 Å²	–	CCCCC/C=C\C/C=C\C/C=C\C/C=C\CCCCCC(=O)OC[C@@H](COC(=O)CCCCCCCCCCC)OC(=O)CCCCCCCCCCCCCCCCCCCC [TG(55:4)]	–
336.8	339.23 Å² and 342.34 Å² and 337.3 Å²	–	CCCCC/C=C\C/C=C\C/C=C\CCCCCCC(=O)O[C@H](COC(=O)CCCCCCCCCCCCCCC)COC(=O)CCCCCCCCCCCCCCCCCCCCC [TG(58:3)]	–
–	–	–	CCCCCCCCCCCCC=CC[C@@H](O)[C@H](COP(=O)([O-])OCC[N+](C)(C)C)NC(=O)CCCCCCCCCCCCCCCCCCC [SM(38:1)]	collision cross section (N2) ([3]; [M+Na]+): 298.5 Å²; collision cross section (N2) ([1]; [M+HCOO]-): 292.1 Å²; collision cross section (N2) ([2]; [M+H]+): 293.47 Å²
332.8	–	332.96 Å²	CCCCCCCCCC/C=C\CCCCCCCCCC(=O)OC[C@@H](COC(=O)CCCCCCCCCCC)OC(=O)CCCCCCCCC/C=C\CCCCCCCCCC [TG(56:2)]	–
330	328.42 Å² and 327.73 Å²	329.2 Å²	CC/C=C\C/C=C\C/C=C\C/C=C\C/C=C\CCCCCC(=O)OC[C@@H](COC(=O)CCCCCCC/C=C\CCCCCC)OC(=O)CCCCCC/C=C\C/C=C\C/C=C\CCCCC [TG(58:9)]	–
310.9	–	308.88 Å² and 310.77 Å²	CCCCCCCCCC/C=C\CCCCCCCCCC(=O)OC[C@@H](COC(=O)CCCCCCCCCCCC)OC(=O)CCCCCCCCCCCC [TG(48:1)]	–
–	–	–	CCCCCCCCCCCCC=CC[C@@H](O)[C@H](COP(=O)([O-])OCC[N+](C)(C)C)NC(=O)CCCCCCCCCCCCCCCCCCCCCCC [SM(42:1)]	collision cross section (N2) ([3]; [M+Na]+): 309.3 Å²; collision cross section (N2) ([1]; [M+HCOO]-): 303 Å²; collision cross section (N2) ([2]; [M+H]+): 304.96 Å²
307.8	308.33 Å² and 309.79 Å² and 313.23 Å²	308.93 Å²	CCCCC/C=C\CCCCCCCC(=O)OC[C@H](COC(=O)CCCCCCC/C=C\CCCCCCCCC)OC(=O)CCCCCCC/C=C\CCCCC [TG(49:3)]	–
–	334.9 Å² and 337.31 Å² and 332.94 Å²	–	CCCCC/C=C\CCCCCCCC(=O)OC[C@H](COC(=O)CCCCCCCCCCCCCCCCCCC)OC(=O)CCCCCCCCCCCCCCCCCCC [TG(55:1)]	–
–	340.07 Å² and 342.55 Å²	–	CCCCCCCCC/C=C\CCCCCCCC(=O)OC[C@@H](COC(=O)CCCCCCCCCCCCCCCCCC)OC(=O)CCCCCCCCCCCCCCCCCC [TG(57:1)]	–
323.6	–	321.52 Å² and 323.87 Å²	CCCCCCCC/C=C\CCCCCCCCCC(=O)OC[C@@H](COC(=O)CCCCCCCCCCCC)OC(=O)CCCCCCCCC/C=C\CCCCCCCC [TG(53:2)]	–
–	255.8 Å²	–	CCCCCCCC/C=C\CCCCCCCCCC(=O)O[C@@H](CO)COC(=O)CCCCCCCCCCC [DG(32:1)]	–

collision cross section (N2) ([1]; [M+NH4]+) [Å²]	collision cross section (N2) ([2]; [M+NH4]+)	collision cross section (N2) ([2]; [M+Na]+)	Structure (SMILES)	further results
–	–	–	CCCCCCCCCCCCC=CC[C@@H](O)[C@H](COP(=O)([O-])OCC[N+](C)(C)C)NC(=O)CC=CCCCCCCCCCCCCCCCCCCCC [SM(42:2)]	collision cross section (N2) ([3]; [M+Na]+): 308.2 Å²; collision cross section (N2) ([1]; [M+H]+): 304.2 Å²; collision cross section (N2) ([1]; [M+Na]+): 304.4 Å²; collision cross section (N2) ([2]; [M+H]+): 305.54 Å²
–	282.64 Å² and 284.9 Å²	280.45 Å² and 283.77 Å²	CCCCCC/C=C\CCCCCCCC(=O)OC[C@@H](COC(=O)CCCCCCCCCCC)OC(=O)CCCCCCCCCCC [TG(40:1)]	–
–	–	302.27 Å² and 304.44 Å²	CCCCCCCCCC/C=C\CCCCCCCCCC(=O)OC[C@@H](COC(=O)CCCCCCCCCCC)OC(=O)CCCCCCCCCCC [TG(46:1)]	–
257.9	257.59 Å² and 259.54 Å²	–	CCCC/C=C\C/C=C\CCCCCCCC(=O)O[C@@H](CO)COC(=O)CCCCCCCCCCCCCCCC [DG(34:2)]	–
–	–	–	CCCCCCCCCCCCC=CC[C@@H](O)[C@H](COP(=O)([O-])OCC[N+](C)(C)C)NC(=O)CCCCCCCCCCCCCCCC [SM(35:1)]	collision cross section (N2) ([3]; [M+Na]+): 289.1 Å²; collision cross section (N2) ([1]; [M+H]+): 285.1 Å²; collision cross section (N2) ([1]; [M+Na]+): 285.6 Å²; collision cross section (N2) ([2]; [M+H]+): 284.31 Å²
–	–	–	C=CCCCCCCCCCCCCC(=O)O[C@H](COC(=O)CCCCCCCCCCCCCCC)COP(=O)([O-])OCC[N+](C)(C)C [PC(31:1)]	collision cross section (N2) ([3]; [M+K]+): 286.5 Å²; collision cross section (N2) ([2]; [M+H]+): 276.07 Å²
–	266.74 Å²	–	CC/C=C\C/C=C\C/C=C\C/C=C\C/C=C\CCCCCC(=O)O[C@@H](CO)COC(=O)CCCC/C=C\C/C=C\C/C=C\CCCCC [DG(40:8)]	–
–	–	–	CCCCCCCCCCCCC=CC[C@@H](O)[C@H](COP(=O)([O-])OCC[N+](C)(C)C)NC(=O)CCCCCCCCCCCCCCCCCCCCCC [SM(41:1)]	collision cross section (N2) ([3]; [M+Na]+): 306.3 Å²; collision cross section (N2) ([1]; [M+HCOO]-): 300.3 Å²; collision cross section (N2) ([1]; [M+H]+): 302.9 Å²; collision cross section (N2) ([1]; [M+Na]+): 302.8 Å²; collision cross section (N2) ([2]; [M+H]+): 302.5 Å²
328.4	–	325.86 Å² and 328.61 Å²	CCCC/C=C\CCCCCCCC(=O)OC[C@H](COC(=O)CCCCCCCCCCCCCCCCCCC)OC(=O)CCCCCCCCCCCCCCCCCCC [TG(54:1)]	–
336.6	340.43 Å² and 336.2 Å²	–	CCCCC/C=C\C/C=C\C/C=C\CCCCCCCCC(=O)OC[C@@H](COC(=O)CCCCCCC/C=C\CCCCCCC)OC(=O)CCCCCCCCCCCCCCCCCC [TG(58:4)]	–
–	–	–	CCCCCC/C=C\CCCCCCCCCC(=O)OC[C@H](COP(=O)([O-])OCC[N+](C)(C)C)OC(=O)CCCCCCCCCCCCC [PC(32:1)]	collision cross section (N2) [4]: 278 Å²; collision cross section (N2) ([1]; [M+Na]+): 282.6 Å²; collision cross section (N2) ([2]; [M+H]+): 279.13 Å²
319.9	–	316.05 Å² and 318.28 Å²	CC/C=C\C/C=C\C/C=C\C/C=C\CCCCC(=O)O[C@H](COC(=O)CCCCCCC/C=C\CCCCCCC)COC(=O)CCCCCCC/C=C\CCCCCCCCC [TG(54:6)]	–
325.6	323.28 Å² and 324.75 Å²	–	CC/C=C\C/C=C\C/C=C\C/C=C\C/C=C\CCCC(=O)OC[C@@H](COC(=O)CCCCCCCCCCCCCCCCC)OC(=O)CCCC/C=C\C/C=C\C/C=C\CCCCC [TG(56:8)]	–
–	340.53 Å² and 343 Å²	–	CCCCC/C=C\C/C=C\C/C=C\CCCCCCCCC(=O)OC[C@@H](COC(=O)CCCCCCCCCCCCCCCCC)OC(=O)CCCCCCC/C=C\CCCCCCCCC [TG(59:4)]	–
–	–	315.05 Å² and 316.8 Å²	CCCCCCCCCC/C=C\CCCCCCCCCC(=O)OC[C@@H](COC(=O)CCCCCCCCCCCCC)OC(=O)CCCCCCCCCCCCC [TG(50:1)]	–
–	–	–	CCCCCCCCCCCCC=CCC=CCC=CCC=CCC(=O)N[C@@H](COP(=O)([O-])OCC[N+](C)(C)C)[C@H](O)CC=CCCCCCCCCCCCC [SM(43:5)]	collision cross section (N2) ([2]; [M+H]+): 301.97 Å²
–	339.13 Å²	–	CCCCC/C=C\C/C=C\C/C=C\C/C=C\CCCC(=O)O[C@@H](COC(=O)CCCCCCCCCCC/C=C\C/C=C\CCCCC)COC(=O)CCCCCCCCCCCCCCCC [TG(59:6)]	–
320.2	318.16 Å² and 320.59 Å² and 322.8 Å²	317.01 Å² and 319.26 Å²	CCCC/C=C\CCCCCCCC(=O)OC[C@H](COC(=O)CCCCCCC/C=C\CCCCCCCCC)OC(=O)CCCCCCC/C=C\CCCCCCCCC [TG(52:3)]	–
300.4	300.67 Å² and 303.01 Å²	299.74 Å² and 302.02 Å²	CCCCCCC/C=C\CCCCCCCC(=O)OC[C@@H](COC(=O)CCCCCCCCCCC)OC(=O)CCCCCCC/C=C\CCCCCCC [TG(46:2)]	–

From the C3SDB collision cross section collection
